Assay results taken from ChEMBL document CHEMBL4706518, “Discovery of MGS0274, an ester prodrug of a metabotropic glutamate receptor 2/3 agonist with improved oral bioavailability” (Eur J Med Chem, 2020).
Calls of active or inactive are those of the source. No cut-off for these calls is given here.

Legend:
[1] = target: Androgen receptor (Homo sapiens) (UniProt P10275); assay: Binding affinity to androgen receptor (unknown origin) 10 umol/L by radioligand binding assay; details: dose 10.0 µmol/L
[2] = target: Type-2 angiotensin II receptor (Homo sapiens) (UniProt P50052); assay: Binding affinity to AT2 receptor (unknown origin) 10 umol/L by radioligand binding assay; details: dose 10.0 µmol/L
[3] = target: Beta-2 adrenergic receptor (Homo sapiens) (UniProt P07550); assay: Binding affinity to beta2 adrenoreceptor (unknown origin) 10 umol/L by radioligand binding assay; details: dose 10.0 µmol/L
[4] = target: Alpha-2A adrenergic receptor (Homo sapiens) (UniProt P08913); assay: Binding affinity to alpha2A adrenoreceptor (unknown origin) 10 umol/L by radioligand binding assay; details: dose 10.0 µmol/L
Homo sapiens [5] = organism: Homo sapiens; assay: Binding affinity to adenosine transporter (unknown origin) at 10 umol/L by radioligand binding assay; details: dose 10.0 µmol/L
[6] = target: Adenosine receptor A1 (Homo sapiens) (UniProt P30542); assay: Binding affinity to A1 receptor (unknown origin) at 10 umol/L by radioligand binding assay; details: dose 10.0 µmol/L
[7] = target: Adenosine receptor A2a (Homo sapiens) (UniProt P29274); assay: Binding affinity to A2a receptor (unknown origin) at 10 umol/L by radioligand binding assay; details: dose 10.0 µmol/L
[8] = Lipophilicity, logD of compound in n-octanol and phosphate buffered saline at 2 mg after 1.5 hrs by HPLC based shake flask method; assay type: physicochemical
[9] = target: Metabotropic glutamate receptor 3 (Homo sapiens, UniProt Q14832); assay: Agonist activity at human mGlu3 receptor expressed in CHO cell membranes by GTPgammaS binding assay; assay type: functional, Cell membrane
Homo sapiens [10] = organism: Homo sapiens; assay: Binding affinity to bombesin receptor (unknown origin) 10 umol/L by radioligand binding assay; details: dose 10.0 µmol/L
[11] = target: T1, Voltage-gated L-type calcium channel (Homo sapiens, UniProt Q13936+Q13698+Q01668+O60840); assay: Binding affinity to Voltage-dependent L-type calcium channel benzothiazepine site (unknown origin) 10 umol/L by radioligand binding assay; assay type: protein assay; details: 10 µM, dose 10 µmol/L
[12] = target: T1, Voltage-gated L-type calcium channel; assay: Binding affinity to Voltage-dependent L-type calcium channel phenylalkylamine site (unknown origin) 10 umol/L by radioligand binding assay; assay type: protein assay; details: 10 µM, dose 10 µmol/L
Homo sapiens [13] = organism: Homo sapiens; assay: Binding affinity to Voltage-dependent N-type calcium channel (unknown origin) 10 umol/L by radioligand binding assay; details: dose 10.0 µmol/L
[14] = target: Cannabinoid receptor 2 (Homo sapiens) (UniProt P34972); assay: Binding affinity to CB2 (unknown origin) 10 umol/L by radioligand binding assay; details: dose 10.0 µmol/L
[15] = target: Cholecystokinin receptor type A (Homo sapiens) (UniProt P32238); assay: Binding affinity to CCKA (unknown origin) 10 umol/L by radioligand binding assay; details: dose 10.0 µmol/L
[16] = target: Corticotropin-releasing factor receptor 1 (Homo sapiens) (UniProt P34998); assay: Binding affinity to CRF1(unknown origin) 10 umol/L by radioligand binding assay; details: dose 10.0 µmol/L
[17] = target: D(1A) dopamine receptor (Homo sapiens) (UniProt P21728); assay: Binding affinity to D1 receptor (unknown origin) 10 umol/L by radioligand binding assay; details: dose 10.0 µmol/L
[18] = target: D(2) dopamine receptor (Homo sapiens) (UniProt P14416); assay: Binding affinity to D2S receptor (unknown origin) 10 umol/L by radioligand binding assay; details: dose 10.0 µmol/L
[19] = target: D(3) dopamine receptor (Homo sapiens) (UniProt P35462); assay: Binding affinity to D3 receptor (unknown origin) 10 umol/L by radioligand binding assay; details: dose 10.0 µmol/L
Homo sapiens [20] = organism: Homo sapiens; assay: Binding affinity to estrogen receptor (unknown origin) 10 umol/L by radioligand binding assay; details: dose 10.0 µmol/L
[21] = target: Endothelin-1 receptor (Homo sapiens) (UniProt P25101); assay: Binding affinity to ETA receptor (unknown origin) 10 umol/L by radioligand binding assay; details: dose 10.0 µmol/L
Homo sapiens [22] = organism: Homo sapiens; assay: Binding affinity to GABAA receptor BZ central (unknown origin) 10 umol/L by radioligand binding assay; details: dose 10.0 µmol/L
Homo sapiens [23] = organism: Homo sapiens; assay: Binding affinity to GABAA chloride channel central (unknown origin) 10 umol/L by radioligand binding assay; details: dose 10.0 µmol/L
Homo sapiens [24] = organism: Homo sapiens; assay: Binding affinity to GABAB (unknown origin) 10 umol/L by radioligand binding assay; details: dose 10.0 µmol/L
Homo sapiens [25] = organism: Homo sapiens; assay: Binding affinity to GABA transporter (unknown origin) 10 umol/L by radioligand binding assay; details: dose 10.0 µmol/L
[26] = target: Glucocorticoid receptor (Homo sapiens) (UniProt P04150); assay: Binding affinity to glucocorticoid receptor (unknown origin) 10 umol/L by radioligand binding assay; details: dose 10.0 µmol/L
Homo sapiens [27] = organism: Homo sapiens; assay: Binding affinity to Kainate receptor (unknown origin) 10 umol/L by radioligand binding assay; details: dose 10.0 µmol/L
Homo sapiens [28] = organism: Homo sapiens; assay: Binding affinity to NMDA receptor PCP site (unknown origin) 10 umol/L by radioligand binding assay; details: dose 10.0 µmol/L
Homo sapiens [29] = organism: Homo sapiens; assay: Binding affinity to ATP-sensitive inward rectifier potassium channel (unknown origin) 10 umol/L by radioligand binding assay; details: dose 10.0 µmol/L
Homo sapiens [30] = organism: Homo sapiens; assay: Binding affinity to Leukotriene B4 receptor (unknown origin) 10 umol/L by radioligand binding assay; details: dose 10.0 µmol/L
[31] = target: Cysteinyl leukotriene receptor 1 (Homo sapiens) (UniProt Q9Y271); assay: Binding affinity to Leukotriene D4 receptor (unknown origin) 10 umol/L by radioligand binding assay; details: dose 10.0 µmol/L
[32] = target: Melatonin receptor type 1A (Homo sapiens) (UniProt P48039); assay: Binding affinity to MT1 receptor (unknown origin) 10 umol/L by radioligand binding assay; details: dose 10.0 µmol/L
Homo sapiens [33] = organism: Homo sapiens; assay: Binding affinity to Monoamine transporter (unknown origin) 10 umol/L by radioligand binding assay; details: dose 10.0 µmol/L
[34] = target: Muscarinic acetylcholine receptor M2 (Homo sapiens) (UniProt P08172); assay: Binding affinity to muscarinic M2 (unknown origin) 10 umol/L by radioligand binding assay; details: dose 10.0 µmol/L
[35] = target: Muscarinic acetylcholine receptor M5 (Homo sapiens) (UniProt P08912); assay: Binding affinity to muscarinic M5 (unknown origin) 10 umol/L by radioligand binding assay; details: dose 10.0 µmol/L
[36] = target: Substance-P receptor (Homo sapiens) (UniProt P25103); assay: Binding affinity to NK1 receptor (unknown origin) 10 umol/L by radioligand binding assay; details: dose 10.0 µmol/L
[37] = target: Substance-K receptor (Homo sapiens) (UniProt P21452); assay: Binding affinity to NK2 receptor (unknown origin) 10 umol/L by radioligand binding assay; details: dose 10.0 µmol/L
[38] = target: Sodium-dependent noradrenaline transporter (Homo sapiens) (UniProt P23975); assay: Binding affinity to norepinephrine transporter (unknown origin) 10 umol/L by radioligand binding assay; details: dose 10.0 µmol/L
[39] = target: Nociceptin receptor (Homo sapiens) (UniProt P41146); assay: Binding affinity to ORL1 receptor (unknown origin) 10 umol/L by radioligand binding assay; details: dose 10.0 µmol/L
[40] = target: Platelet-activating factor receptor (Homo sapiens) (UniProt P25105); assay: Binding affinity to PAF receptor (unknown origin) 10 umol/L by radioligand binding assay; details: dose 10.0 µmol/L
[41] = target: 5-hydroxytryptamine receptor 1A (Homo sapiens) (UniProt P08908); assay: Binding affinity to 5-HT1A receptor (unknown origin) 10 umol/L by radioligand binding assay; details: dose 10.0 µmol/L
[42] = target: 5-hydroxytryptamine receptor 2A (Homo sapiens) (UniProt P28223); assay: Binding affinity to 5-HT2A receptor (unknown origin) 10 umol/L by radioligand binding assay; details: dose 10.0 µmol/L
[43] = target: Sigma non-opioid intracellular receptor 1 (Homo sapiens) (UniProt Q99720); assay: Binding affinity to sigma1 receptor (unknown origin) 10 umol/L by radioligand binding assay; details: dose 10.0 µmol/L
[44] = target: Vasopressin V2 receptor (Homo sapiens) (UniProt P30518); assay: Binding affinity to Vasopressin V2 receptor (unknown origin) 10 umol/L by radioligand binding assay; details: dose 10.0 µmol/L

Sequence of Adenosine receptor A1 (Homo sapiens) (P30542 whole entry): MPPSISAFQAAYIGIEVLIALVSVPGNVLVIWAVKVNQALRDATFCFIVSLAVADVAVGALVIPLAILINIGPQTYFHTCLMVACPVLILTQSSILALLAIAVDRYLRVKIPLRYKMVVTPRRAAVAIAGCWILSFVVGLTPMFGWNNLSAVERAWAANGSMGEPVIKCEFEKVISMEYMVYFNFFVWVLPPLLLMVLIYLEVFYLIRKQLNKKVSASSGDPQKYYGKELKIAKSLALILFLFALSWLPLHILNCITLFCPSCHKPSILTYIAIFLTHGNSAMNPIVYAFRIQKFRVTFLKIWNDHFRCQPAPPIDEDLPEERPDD
Sequence of Beta-2 adrenergic receptor (Homo sapiens) (P07550 whole entry, looked up): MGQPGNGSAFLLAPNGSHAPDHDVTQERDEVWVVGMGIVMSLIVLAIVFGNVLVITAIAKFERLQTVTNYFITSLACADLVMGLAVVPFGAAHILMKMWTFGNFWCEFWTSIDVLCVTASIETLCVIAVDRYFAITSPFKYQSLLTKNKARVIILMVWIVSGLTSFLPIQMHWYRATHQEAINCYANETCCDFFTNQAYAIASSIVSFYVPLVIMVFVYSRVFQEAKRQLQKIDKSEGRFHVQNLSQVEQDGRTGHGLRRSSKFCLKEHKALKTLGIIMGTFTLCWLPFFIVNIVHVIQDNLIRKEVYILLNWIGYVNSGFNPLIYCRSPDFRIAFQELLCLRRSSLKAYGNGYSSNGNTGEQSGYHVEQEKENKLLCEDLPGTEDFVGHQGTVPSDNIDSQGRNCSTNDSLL
Sequence of D(3) dopamine receptor (Homo sapiens) (P35462 whole entry): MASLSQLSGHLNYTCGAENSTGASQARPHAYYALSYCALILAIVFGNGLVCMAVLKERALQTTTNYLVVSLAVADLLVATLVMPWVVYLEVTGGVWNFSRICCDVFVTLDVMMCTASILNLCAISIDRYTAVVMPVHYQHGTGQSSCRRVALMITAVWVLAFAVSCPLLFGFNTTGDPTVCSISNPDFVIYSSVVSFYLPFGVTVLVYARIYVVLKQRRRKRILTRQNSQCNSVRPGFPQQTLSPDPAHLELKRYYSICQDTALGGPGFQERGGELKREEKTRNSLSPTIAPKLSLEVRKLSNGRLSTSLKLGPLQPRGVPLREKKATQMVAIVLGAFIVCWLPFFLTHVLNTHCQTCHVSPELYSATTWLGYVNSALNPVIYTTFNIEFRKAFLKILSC
Sequence of Muscarinic acetylcholine receptor M2 (Homo sapiens) (P08172 whole entry): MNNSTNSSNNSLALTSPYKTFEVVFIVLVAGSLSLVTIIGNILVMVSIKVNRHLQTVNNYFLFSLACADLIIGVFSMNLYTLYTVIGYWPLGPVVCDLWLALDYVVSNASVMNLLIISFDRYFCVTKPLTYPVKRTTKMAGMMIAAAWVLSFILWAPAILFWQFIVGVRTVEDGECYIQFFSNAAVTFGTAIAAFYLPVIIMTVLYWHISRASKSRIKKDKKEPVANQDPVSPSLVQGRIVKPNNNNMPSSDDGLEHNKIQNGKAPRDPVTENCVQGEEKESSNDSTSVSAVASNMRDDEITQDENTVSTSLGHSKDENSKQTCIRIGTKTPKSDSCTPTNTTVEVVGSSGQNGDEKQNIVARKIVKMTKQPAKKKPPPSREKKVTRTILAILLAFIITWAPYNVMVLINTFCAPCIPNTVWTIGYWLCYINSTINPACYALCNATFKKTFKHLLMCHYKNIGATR
Sequence of Substance-P receptor (Homo sapiens) (P25103 whole entry): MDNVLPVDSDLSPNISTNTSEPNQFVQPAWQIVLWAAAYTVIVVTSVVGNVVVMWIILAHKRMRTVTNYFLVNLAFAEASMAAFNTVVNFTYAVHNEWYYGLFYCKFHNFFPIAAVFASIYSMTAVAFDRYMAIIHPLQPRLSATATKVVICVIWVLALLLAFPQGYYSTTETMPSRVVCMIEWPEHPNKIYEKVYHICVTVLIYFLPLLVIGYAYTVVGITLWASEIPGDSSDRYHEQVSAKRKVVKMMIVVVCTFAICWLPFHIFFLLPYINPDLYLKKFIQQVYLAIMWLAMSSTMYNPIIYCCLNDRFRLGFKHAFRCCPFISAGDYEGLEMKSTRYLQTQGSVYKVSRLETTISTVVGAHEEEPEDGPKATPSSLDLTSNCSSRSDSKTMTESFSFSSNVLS
Sequence of D(2) dopamine receptor (Homo sapiens) (P14416 whole entry): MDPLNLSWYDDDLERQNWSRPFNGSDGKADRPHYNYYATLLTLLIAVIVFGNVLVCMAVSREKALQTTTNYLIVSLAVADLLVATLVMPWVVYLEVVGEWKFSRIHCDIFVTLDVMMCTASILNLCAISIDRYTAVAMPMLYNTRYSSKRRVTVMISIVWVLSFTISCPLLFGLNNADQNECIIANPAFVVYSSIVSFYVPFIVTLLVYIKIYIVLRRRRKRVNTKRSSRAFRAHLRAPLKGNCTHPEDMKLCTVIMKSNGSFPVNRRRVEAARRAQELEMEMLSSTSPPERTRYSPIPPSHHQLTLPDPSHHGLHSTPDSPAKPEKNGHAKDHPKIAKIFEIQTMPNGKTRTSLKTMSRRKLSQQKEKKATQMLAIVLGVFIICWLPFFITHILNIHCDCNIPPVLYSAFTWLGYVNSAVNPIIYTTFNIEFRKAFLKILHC
Sequence of Alpha-2A adrenergic receptor (Homo sapiens) (P08913 whole entry): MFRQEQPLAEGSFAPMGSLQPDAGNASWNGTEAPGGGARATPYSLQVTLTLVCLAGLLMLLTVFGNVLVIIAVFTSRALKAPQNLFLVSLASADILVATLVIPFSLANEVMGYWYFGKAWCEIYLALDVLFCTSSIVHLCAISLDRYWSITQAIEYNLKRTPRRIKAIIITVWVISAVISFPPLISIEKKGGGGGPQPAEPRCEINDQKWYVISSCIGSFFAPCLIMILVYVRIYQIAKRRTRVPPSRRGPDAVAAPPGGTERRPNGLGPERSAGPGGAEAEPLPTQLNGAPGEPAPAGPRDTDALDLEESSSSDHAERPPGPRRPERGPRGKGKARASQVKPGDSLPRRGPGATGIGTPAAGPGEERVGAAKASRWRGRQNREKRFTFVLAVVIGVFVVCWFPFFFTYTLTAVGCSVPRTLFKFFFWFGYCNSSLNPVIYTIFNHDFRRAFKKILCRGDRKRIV
Sequence of Metabotropic glutamate receptor 3 (Q14832 whole entry): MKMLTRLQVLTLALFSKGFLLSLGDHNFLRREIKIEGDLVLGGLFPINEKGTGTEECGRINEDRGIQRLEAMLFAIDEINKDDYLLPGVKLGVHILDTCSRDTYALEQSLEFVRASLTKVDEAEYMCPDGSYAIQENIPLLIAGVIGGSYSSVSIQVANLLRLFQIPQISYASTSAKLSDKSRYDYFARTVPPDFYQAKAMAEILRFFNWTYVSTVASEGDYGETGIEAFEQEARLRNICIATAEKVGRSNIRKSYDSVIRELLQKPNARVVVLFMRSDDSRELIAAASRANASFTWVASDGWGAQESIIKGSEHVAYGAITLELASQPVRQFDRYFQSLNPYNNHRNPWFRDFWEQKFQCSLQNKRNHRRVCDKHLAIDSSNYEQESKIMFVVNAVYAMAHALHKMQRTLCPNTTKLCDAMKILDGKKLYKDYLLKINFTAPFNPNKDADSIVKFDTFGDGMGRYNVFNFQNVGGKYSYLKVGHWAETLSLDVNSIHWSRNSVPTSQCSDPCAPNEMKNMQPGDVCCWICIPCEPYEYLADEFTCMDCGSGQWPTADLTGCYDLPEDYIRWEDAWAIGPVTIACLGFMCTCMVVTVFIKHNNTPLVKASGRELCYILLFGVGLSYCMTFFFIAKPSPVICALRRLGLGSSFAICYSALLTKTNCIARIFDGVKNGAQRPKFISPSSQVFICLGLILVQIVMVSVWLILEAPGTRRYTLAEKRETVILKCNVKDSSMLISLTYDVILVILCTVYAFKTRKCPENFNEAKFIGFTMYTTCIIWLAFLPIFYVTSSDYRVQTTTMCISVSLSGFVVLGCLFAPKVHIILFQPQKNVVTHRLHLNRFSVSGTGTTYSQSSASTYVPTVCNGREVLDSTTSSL
Sequence of Cholecystokinin receptor type A (Homo sapiens) (P32238 whole entry): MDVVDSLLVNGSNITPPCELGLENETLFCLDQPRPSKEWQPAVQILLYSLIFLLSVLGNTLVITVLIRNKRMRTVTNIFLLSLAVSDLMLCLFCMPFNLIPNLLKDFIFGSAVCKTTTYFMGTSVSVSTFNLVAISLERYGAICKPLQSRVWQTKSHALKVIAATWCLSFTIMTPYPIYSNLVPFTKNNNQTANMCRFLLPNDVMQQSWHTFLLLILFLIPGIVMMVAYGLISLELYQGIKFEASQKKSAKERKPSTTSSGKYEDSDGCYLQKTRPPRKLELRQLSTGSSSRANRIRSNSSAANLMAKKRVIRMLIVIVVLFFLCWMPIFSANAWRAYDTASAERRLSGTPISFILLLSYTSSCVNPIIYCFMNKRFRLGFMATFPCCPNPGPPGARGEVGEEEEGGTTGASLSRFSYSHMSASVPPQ
Sequence of Muscarinic acetylcholine receptor M5 (Homo sapiens) (P08912 whole entry): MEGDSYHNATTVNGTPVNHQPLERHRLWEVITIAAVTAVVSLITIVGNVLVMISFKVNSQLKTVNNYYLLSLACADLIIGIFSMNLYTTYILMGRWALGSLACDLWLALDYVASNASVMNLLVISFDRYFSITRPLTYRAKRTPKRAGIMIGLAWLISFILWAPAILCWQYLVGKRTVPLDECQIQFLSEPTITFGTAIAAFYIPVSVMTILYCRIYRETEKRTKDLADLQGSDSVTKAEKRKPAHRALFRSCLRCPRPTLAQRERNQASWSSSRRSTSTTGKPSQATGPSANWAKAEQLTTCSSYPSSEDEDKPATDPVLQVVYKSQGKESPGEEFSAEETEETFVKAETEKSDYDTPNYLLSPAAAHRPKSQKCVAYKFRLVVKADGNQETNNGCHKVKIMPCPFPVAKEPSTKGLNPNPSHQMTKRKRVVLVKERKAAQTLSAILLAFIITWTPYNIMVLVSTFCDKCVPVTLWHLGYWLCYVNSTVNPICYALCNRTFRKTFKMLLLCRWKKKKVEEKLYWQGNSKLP

Compound: CC(C)[C@@H]1CC[C@@H](C)C[C@H]1OC(=O)O[C@@H](C)OC(=O)[C@H]1[C@@H]2C[C@H](F)[C@@](N)(C(=O)O)[C@@H]21
- Activity [1]: inactive
- Activity [2]: inactive
- Activity [3]: inactive
- Activity [4]: inactive
- Activity (Homo sapiens [5]): inactive
- Activity [6]: inactive
- Activity [7]: inactive
- logD at 1.5 h ([8]; n-octanol/phosphate buffered saline): > 2.04
- EC50 [9]: > 30 µM
- Activity (Homo sapiens [10]): inactive
- Activity [11]: Not Active
- Activity [12]: Not Active
- Activity (Homo sapiens [13]): inactive
- Activity [14]: inactive
- Activity [15]: inactive
- Activity [16]: inactive
- Activity [17]: inactive
- Activity [18]: inactive
- Activity [19]: inactive
- Activity (Homo sapiens [20]): inactive
- Activity [21]: inactive
- Activity (Homo sapiens [22]): inactive
- Activity (Homo sapiens [23]): inactive
- Activity (Homo sapiens [24]): inactive
- Activity (Homo sapiens [25]): inactive
- Activity [26]: inactive
- Activity (Homo sapiens [27]): inactive
- Activity (Homo sapiens [28]): inactive
- Activity (Homo sapiens [29]): inactive
- Activity (Homo sapiens [30]): inactive
- Activity [31]: inactive
- Activity [32]: inactive
- Activity (Homo sapiens [33]): inactive
- Activity [34]: inactive
- Activity [35]: inactive
- Activity [36]: inactive
- Activity [37]: inactive
- Activity [38]: inactive
- Activity [39]: inactive
- Activity [40]: inactive
- Activity [41]: inactive
- Activity [42]: inactive
- Activity [43]: inactive
- Activity [44]: inactive

Compound: N[C@]1(C(=O)O)[C@H]2[C@@H](C[C@@H]1F)[C@@H]2C(=O)O
- Activity [1]: inactive
- Activity [2]: inactive
- Activity [3]: inactive
- Activity [4]: inactive
- Activity (Homo sapiens [5]): inactive
- Activity [6]: inactive
- Activity [7]: inactive
- logD ([8]; 1.5 h): -4.02
- EC50 [9]: 0.0759 µM
- Activity (Homo sapiens [10]): inactive
- Activity [11]: Not Active
- Activity [12]: Not Active
- Activity (Homo sapiens [13]): inactive
- Activity [14]: inactive
- Activity [15]: inactive
- Activity [16]: inactive
- Activity [17]: inactive
- Activity [18]: inactive
- Activity [19]: inactive
- Activity (Homo sapiens [20]): inactive
- Activity [21]: inactive
- Activity (Homo sapiens [22]): inactive
- Activity (Homo sapiens [23]): inactive
- Activity (Homo sapiens [24]): inactive
- Activity (Homo sapiens [25]): inactive
- Activity [26]: inactive
- Activity (Homo sapiens [27]): inactive
- Activity (Homo sapiens [28]): inactive
- Activity (Homo sapiens [29]): inactive
- Activity (Homo sapiens [30]): inactive
- Activity [31]: inactive
- Activity [32]: inactive
- Activity (Homo sapiens [33]): inactive
- Activity [34]: inactive
- Activity [35]: inactive
- Activity [36]: inactive
- Activity [37]: inactive
- Activity [38]: inactive
- Activity [39]: inactive
- Activity [40]: inactive
- Activity [41]: inactive
- Activity [42]: inactive
- Activity [43]: inactive
- Activity [44]: inactive
